According to the Kinase Knowledgebase extract (Sharma et al. 2016):

Biological target: EGFR (human) (UniProt P00533)
Conditions: a431

Chain of EGFR (human) (P00533 whole entry, looked up): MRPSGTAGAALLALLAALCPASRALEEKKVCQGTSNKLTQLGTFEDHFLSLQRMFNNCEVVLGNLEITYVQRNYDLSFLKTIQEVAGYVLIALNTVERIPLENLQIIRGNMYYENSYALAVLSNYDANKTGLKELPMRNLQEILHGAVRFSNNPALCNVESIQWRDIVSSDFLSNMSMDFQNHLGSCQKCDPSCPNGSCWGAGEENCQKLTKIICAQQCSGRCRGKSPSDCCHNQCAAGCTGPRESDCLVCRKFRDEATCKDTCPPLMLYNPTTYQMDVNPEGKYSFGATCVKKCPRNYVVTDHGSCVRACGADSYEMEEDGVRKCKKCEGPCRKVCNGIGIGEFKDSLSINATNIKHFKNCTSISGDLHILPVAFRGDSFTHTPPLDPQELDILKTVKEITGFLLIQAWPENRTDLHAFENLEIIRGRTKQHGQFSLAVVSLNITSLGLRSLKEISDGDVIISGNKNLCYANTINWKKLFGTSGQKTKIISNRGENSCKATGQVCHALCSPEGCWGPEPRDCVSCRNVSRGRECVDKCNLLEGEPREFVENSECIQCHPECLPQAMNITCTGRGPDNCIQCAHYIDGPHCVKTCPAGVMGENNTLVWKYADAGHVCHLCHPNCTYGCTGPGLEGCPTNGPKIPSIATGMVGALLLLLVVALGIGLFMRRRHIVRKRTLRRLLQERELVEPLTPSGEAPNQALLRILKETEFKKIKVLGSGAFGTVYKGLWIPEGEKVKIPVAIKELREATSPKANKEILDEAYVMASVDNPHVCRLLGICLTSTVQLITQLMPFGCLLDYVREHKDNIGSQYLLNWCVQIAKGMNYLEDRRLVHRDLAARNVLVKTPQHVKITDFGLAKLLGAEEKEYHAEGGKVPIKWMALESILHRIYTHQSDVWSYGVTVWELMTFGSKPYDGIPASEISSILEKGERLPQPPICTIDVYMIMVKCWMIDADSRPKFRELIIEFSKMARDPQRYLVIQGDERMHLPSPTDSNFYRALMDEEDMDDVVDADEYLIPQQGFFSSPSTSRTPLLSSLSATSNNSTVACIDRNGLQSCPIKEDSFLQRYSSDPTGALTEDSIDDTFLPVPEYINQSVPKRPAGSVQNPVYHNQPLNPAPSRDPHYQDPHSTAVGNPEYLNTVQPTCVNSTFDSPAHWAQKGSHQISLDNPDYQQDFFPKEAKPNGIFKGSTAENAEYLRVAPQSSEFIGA

| IC50 | Compound |
| --- | --- |
| 29 nM | C=CC(=O)N1CCC(Oc2cc3c(Nc4ccc5c(c4)CCC5)ncnc3cc2OC)CC1 |
| 129 nM | C=CC(=O)N1CCC(Oc2cc3c(Nc4ccc(O)c(F)c4)ncnc3cc2OC)CC1 |
| 52 nM | C#Cc1cccc(Nc2ncnc3cc(OC)c(OC4CCN(C(=O)C=C)CC4)cc23)c1 |
| 37 nM | CC#CC(=O)N1CC[C@H](Oc2cc3c(Nc4ccc(F)c(Cl)c4F)ncnc3cc2OC)C1 |
| 3.7 nM | C=CC(=O)N1CCC(Oc2cc3c(Nc4cccc(C#N)c4)ncnc3cc2OC)CC1 |
| 179 nM | C=CC(=O)N1CCC(Oc2cc3c(Nc4cc(Cl)c(O)c(Cl)c4)ncnc3cc2OC)CC1 |
| 514 nM | C=CC(=O)N1CCC(Oc2cc3c(N[C@H](C)c4ccccc4)ncnc3cc2OC)CC1 |
| 1.1 nM | C=CC(=O)N1CC[C@@H](Oc2cc3c(Nc4ccc(Br)cc4F)ncnc3cc2OC)C[C@@H]1C(N)=O |
| 3 nM | C=CC(=O)N1CCC(Oc2cc3c(Nc4cccc(Cl)c4OC)ncnc3cc2OC)CC1 |
| 105 nM | C=CC(=O)N1CCC(Oc2cc3c(Nc4ccc(Cl)c(O)c4)ncnc3cc2OC)CC1 |
| 39 nM | COc1cc2ncnc(Nc3ccc(Cl)c(Cl)c3F)c2cc1OC1CCN(C(=O)/C=C/Cl)CC1 |
| 19 nM | C=CC(=O)N1CCC(Oc2cc3c(Nc4ccc(C)c(C)c4)ncnc3cc2OC)CC1 |
| 38 nM | COc1cc2ncnc(Nc3ccc(F)c(Cl)c3F)c2cc1OC1CCN(C(=O)C=C(C)C)CC1 |
| 10 nM | C=CC(=O)N1CCC(Oc2cc3c(Nc4ccc(OCc5cccc(F)c5)c(Cl)c4)ncnc3cc2OC)CC1 |
| 9 nM | COc1cc2ncnc(Nc3cccc(Cl)c3F)c2cc1OC1CN(C(=O)/C=C/CN(C)C)C1 |
| 15 nM | C=CC(=O)N1CC[C@H](Oc2cc3c(Nc4ccc(Br)cc4F)ncnc3cc2OC)C1 |
| 176 nM | C=CC(=O)N1CCC(Oc2cc3c(Nc4ccc(O)cc4Cl)ncnc3cc2OC)CC1 |
| 17 nM | C=CC(=O)N1CC(Oc2cc3c(Nc4cccc(C#N)c4)ncnc3cc2OC)C1 |

| IC50 | Compound |
| --- | --- |
| 979 nM | C=CC(=O)N1CC[C@@H](Oc2cc3c(Nc4ccc(F)c(Cl)c4F)ncnc3cc2OC)C[C@@H]1C(=O)O |
| 11 nM | C=CC(=O)N1CCC(Oc2cc3c(Nc4cccc([N+](=O)[O-])c4)ncnc3cc2OC)CC1 |
| 93 nM | C=CC(=O)N1CCC(Oc2cc3c(Nc4ccc(Cl)c(C)c4)ncnc3cc2OC)CC1 |
| 32 nM | C=CC(=O)N1CCC(Oc2cc3c(Nc4ccc(Cl)cc4O)ncnc3cc2OC)CC1 |
| 6 nM | C=CC(=O)N1CCCC(Oc2cc3c(Nc4ccc(F)c(Cl)c4F)ncnc3cc2OC)C1 (centres undefined) |
| 14 nM | COc1cc2ncnc(Nc3ccc(Cl)c(Cl)c3F)c2cc1OC1CCN(C(=O)/C=C\Cl)CC1 |
| 85 nM | COc1cc2ncnc(Nc3ccc(F)c(Cl)c3F)c2cc1O[C@H]1CCN(C(=O)/C=C/CN2CCOCC2)C1 |
| 8 nM | COc1cc2ncnc(Nc3cccc(Cl)c3F)c2cc1O[C@H]1CCN(C(=O)/C=C/CN(C)C)C1 |
| 2.7 nM | C=C(CN(C)C)C(=O)N1CCC(Oc2cc3c(Nc4ccc(F)c(Cl)c4F)ncnc3cc2OC)CC1 |
| 61 nM | C=CC(=O)N1CCC(Oc2cc3c(NCc4cccc(Cl)c4)ncnc3cc2OC)CC1 |
| 142 nM | C=CC(=O)N1CCC(Oc2cc3c(Nc4cccc(N(C)C)c4)ncnc3cc2OC)CC1 |
| 35 nM | C=CC(=O)N1CCC(Oc2cc3c(Nc4ccc(Cl)c(C#N)c4)ncnc3cc2OC)CC1 |
| 19 nM | C=CC(=O)N1CC[C@H](Oc2cc3c(Nc4ccc5c(cnn5Cc5cccc(F)c5)c4)ncnc3cc2OC)C1 |
| 883 nM | C=CC(=O)N1CC(Oc2cc3c(Nc4ccc(F)c(Cl)c4F)ncnc3cc2OCCOC)C1 |
| 44 nM | C=C(CO)C(=O)N1CCC(Oc2cc3c(Nc4ccc(Cl)c(Cl)c4F)ncnc3cc2OC)CC1 |
| 4 nM | C=C(CN(C)C)C(=O)N1CCC(Oc2cc3c(Nc4ccc(Cl)c(Cl)c4F)ncnc3cc2OC)CC1 |
| 531 nM | C=CC(=O)N1CC[C@H](Oc2cc3c(Nc4cccc(Cl)c4F)ncnc3cc2OC)C1 |
| 1.7 nM | C=CC(=O)N1CC[C@@H](Oc2cc3c(Nc4ccc(F)c(Cl)c4F)ncnc3cc2OC)C[C@@H]1C(=O)NO |

Continued, compound first:

| Compound | IC50 |
| --- | --- |
| C=CC(=O)N1CC[C@@H](Oc2cc3c(Nc4ccc(F)c(Cl)c4F)ncnc3cc2OC)C[C@@H]1C(=O)NCCS(C)(=O)=O | 2.4 nM |
| C=CC(=O)NCCOc1cc2c(Nc3ccc(F)c(Cl)c3F)ncnc2cc1OC | 699 nM |
| COc1cc2ncnc(Nc3ccc(Cl)c(Cl)c3F)c2cc1OC1CCN(C(=O)/C=C/C(=O)O)CC1 | 516 nM |
| CNC(=O)/C=C/C(=O)N1CC(Oc2cc3c(Nc4ccc(F)c(Cl)c4F)ncnc3cc2OC)C1 | 41 nM |
| C=CC(=O)N1CC[C@H](Oc2cc3c(Nc4ccc(F)c(Cl)c4F)ncnc3cc2OC)C[C@H]1C(=O)NCCCO | 20 nM |
| C=CC(=O)N1CC[C@H](Oc2cc3c(Nc4ccc(OCc5ccccn5)c(Cl)c4)ncnc3cc2OC)C1 | 14 nM |
| C=CC(=O)N1CCC(Oc2cc3c(Nc4cccc(C(F)(F)F)c4)ncnc3cc2OC)CC1 | 58 nM |
| COc1cc2ncnc(Nc3ccc(F)c(Cl)c3F)c2cc1OC1CN(C(=O)/C=C/CN(C)C)C1 | 36 nM |
| C=C(CN1CCN(C)CC1)C(=O)N1CC(Oc2cc3c(Nc4ccc(F)c(Cl)c4F)ncnc3cc2OC)C1 | 1 nM |
| C=CC(=O)N1CC(Oc2cc3c(Nc4ccc(F)c(Cl)c4F)ncnc3cc2O)C1 | 381 nM |
| COC(=O)/C=C\C(=O)N1CC(Oc2cc3c(Nc4cccc(Cl)c4F)ncnc3cc2OC)C1 | 1 nM |
| C=CC(=O)N1CC[C@H](Oc2cc3c(Nc4ccc(F)c(Cl)c4F)ncnc3cc2OC)C[C@H]1C(=O)NCCC | 12 nM |
| C=C(CN1CCCCC1)C(=O)N1CC(Oc2cc3c(Nc4ccc(F)c(Cl)c4F)ncnc3cc2OC)C1 | 9.1 nM |
| C=CC(=O)N1CC[C@H](Oc2ccc3ncnc(Nc4ccc(OCc5cccc(F)c5)c(Cl)c4)c3c2)C1 | 15 nM |
| C=CC(=O)N1CC[C@H](Oc2cc3c(Nc4ccc(F)c(Cl)c4F)ncnc3cc2OC)C[C@H]1C(=O)NC | 2.2 nM |
| C=CC(=O)N1CC[C@H](Oc2cc3c(Nc4ccc(F)c(Cl)c4F)ncnc3cc2OC)C[C@H]1C(=O)NCC | 8 nM |
| COc1cc2ncnc(Nc3ccc(F)c(Cl)c3F)c2cc1OCCNC(=O)/C=C/CN(C)C | 18 nM |
| COc1cc2ncnc(Nc3ccc(Cl)c(Cl)c3F)c2cc1OC1CCN(C(=O)/C=C\C(=O)O)CC1 | 322 nM |
| COc1cc2ncnc(Nc3ccc(F)c(Cl)c3F)c2cc1OC1CN(C(=O)/C=C\CN(C)C)C1 | 15 nM |
| COc1cc2ncnc(Nc3ccc(F)c(Cl)c3F)c2cc1OC1CCN(C(=O)/C=C/C(=O)NO)CC1 | 187 nM |
| COc1cc2ncnc(Nc3ccc(Cl)c(Cl)c3F)c2cc1OC1CCN(C(=O)/C=C/CN(C)C)CC1 | 165 nM |
| CN(C)C/C=C/C(=O)N1CC[C@H](Oc2ccc3ncnc(Nc4ccc(F)c(Cl)c4F)c3c2)C1 | 25 nM |
| CC#CC(=O)N1CCC(Oc2cc3c(Nc4ccc(F)c(Cl)c4F)ncnc3cc2OC)CC1 | 190 nM |
| COC(=O)/C=C\C(=O)N1CCC(Oc2cc3c(Nc4ccc(Cl)c(Cl)c4F)ncnc3cc2OC)CC1 | 8 nM |
| C=CC(=O)N1CC[C@H](Oc2cc3c(Nc4ccc(F)c(Cl)c4F)ncnc3cc2OC)C[C@H]1C(=O)NC(C)C | 7.5 nM |
| COc1cc2ncnc(Nc3ccc(F)c(Cl)c3F)c2cc1O[C@H]1CCN(C(=O)C#CCCN2CCN(C)CC2)C1 | 53 nM |
| C=CC(=O)N1CCC(Oc2cc3c(Nc4ccc(F)c(Cl)c4F)ncnc3cc2OCCCN2CCOCC2)CC1 | 4 nM |
| CNC(=O)/C=C/C(=O)N1CCC(Oc2cc3c(Nc4ccc(F)c(Cl)c4F)ncnc3cc2OC)CC1 | 48 nM |
